Experiments:
Assay in all cases: Eurofins kinase panel
Type in all cases: biochemical
Settings in all cases: read-out: Inhibition rate (%)
PKG1β(h) = target: T1, PKG1β(h) (Homo sapiens, UniProt Q13976)
T1 construct: purchased Eurofins (KinaseProfiler)
T1 sequence (Q13976 1-686 isoform Q13976-2): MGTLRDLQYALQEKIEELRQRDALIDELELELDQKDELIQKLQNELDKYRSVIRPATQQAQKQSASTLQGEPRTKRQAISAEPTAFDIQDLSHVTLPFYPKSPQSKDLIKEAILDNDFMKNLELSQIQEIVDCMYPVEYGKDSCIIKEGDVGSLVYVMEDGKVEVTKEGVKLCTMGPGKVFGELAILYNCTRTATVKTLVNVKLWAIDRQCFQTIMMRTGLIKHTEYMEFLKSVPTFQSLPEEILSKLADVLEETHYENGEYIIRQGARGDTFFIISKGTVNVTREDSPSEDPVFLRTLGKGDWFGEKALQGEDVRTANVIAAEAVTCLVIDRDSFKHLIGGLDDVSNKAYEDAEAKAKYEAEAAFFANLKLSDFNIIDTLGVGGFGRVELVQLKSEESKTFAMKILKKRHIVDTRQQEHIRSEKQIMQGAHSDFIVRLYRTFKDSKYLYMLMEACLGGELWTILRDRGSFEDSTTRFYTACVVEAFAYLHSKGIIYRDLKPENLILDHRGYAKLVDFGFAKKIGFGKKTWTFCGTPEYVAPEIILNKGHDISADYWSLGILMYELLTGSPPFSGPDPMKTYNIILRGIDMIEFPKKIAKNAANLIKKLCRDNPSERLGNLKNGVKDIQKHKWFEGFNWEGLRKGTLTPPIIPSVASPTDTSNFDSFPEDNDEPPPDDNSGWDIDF

EphA8(h) = target: T2, EphA8(h) (Homo sapiens, UniProt P29322)
T2 construct: purchased Eurofins (KinaseProfiler)
T2 sequence (P29322 28-1005): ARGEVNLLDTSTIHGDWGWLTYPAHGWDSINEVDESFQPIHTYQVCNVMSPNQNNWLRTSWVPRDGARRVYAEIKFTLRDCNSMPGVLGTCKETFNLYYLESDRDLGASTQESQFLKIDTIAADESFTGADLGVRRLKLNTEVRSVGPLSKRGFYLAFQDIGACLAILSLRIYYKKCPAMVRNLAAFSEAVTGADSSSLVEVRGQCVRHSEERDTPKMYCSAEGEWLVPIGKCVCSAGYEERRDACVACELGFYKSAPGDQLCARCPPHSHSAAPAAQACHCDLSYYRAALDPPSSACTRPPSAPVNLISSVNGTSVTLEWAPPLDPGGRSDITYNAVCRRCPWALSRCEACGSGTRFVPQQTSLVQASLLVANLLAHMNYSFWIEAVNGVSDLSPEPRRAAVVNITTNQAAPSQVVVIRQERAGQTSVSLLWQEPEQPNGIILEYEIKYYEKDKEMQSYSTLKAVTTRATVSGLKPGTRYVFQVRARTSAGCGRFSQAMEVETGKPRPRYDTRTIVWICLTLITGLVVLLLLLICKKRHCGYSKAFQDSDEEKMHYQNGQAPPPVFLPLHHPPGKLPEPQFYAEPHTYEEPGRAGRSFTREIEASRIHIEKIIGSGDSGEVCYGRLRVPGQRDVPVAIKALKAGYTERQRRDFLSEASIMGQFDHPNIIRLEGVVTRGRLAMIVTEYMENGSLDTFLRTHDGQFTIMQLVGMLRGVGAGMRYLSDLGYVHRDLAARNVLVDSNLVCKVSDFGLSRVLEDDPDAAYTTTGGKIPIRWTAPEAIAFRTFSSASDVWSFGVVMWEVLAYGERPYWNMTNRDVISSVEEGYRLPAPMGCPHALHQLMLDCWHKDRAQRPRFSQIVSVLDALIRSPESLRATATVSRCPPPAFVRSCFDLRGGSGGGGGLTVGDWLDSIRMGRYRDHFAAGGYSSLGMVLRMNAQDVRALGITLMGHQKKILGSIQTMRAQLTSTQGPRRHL

Rsk3(h) = target: T3, Rsk3(h) (Homo sapiens, UniProt Q15349)
T3 construct: purchased Eurofins (KinaseProfiler)

MRCKβ(h) = target: T4, MRCKβ(h) (Homo sapiens, UniProt Q9Y5S2)
T4 construct: purchased Eurofins (KinaseProfiler)

DDR2(h) = target: T5, DDR2(h) (Homo sapiens, UniProt Q16832)
T5 construct: purchased Eurofins (KinaseProfiler)
T5 sequence (Q16832 22-855): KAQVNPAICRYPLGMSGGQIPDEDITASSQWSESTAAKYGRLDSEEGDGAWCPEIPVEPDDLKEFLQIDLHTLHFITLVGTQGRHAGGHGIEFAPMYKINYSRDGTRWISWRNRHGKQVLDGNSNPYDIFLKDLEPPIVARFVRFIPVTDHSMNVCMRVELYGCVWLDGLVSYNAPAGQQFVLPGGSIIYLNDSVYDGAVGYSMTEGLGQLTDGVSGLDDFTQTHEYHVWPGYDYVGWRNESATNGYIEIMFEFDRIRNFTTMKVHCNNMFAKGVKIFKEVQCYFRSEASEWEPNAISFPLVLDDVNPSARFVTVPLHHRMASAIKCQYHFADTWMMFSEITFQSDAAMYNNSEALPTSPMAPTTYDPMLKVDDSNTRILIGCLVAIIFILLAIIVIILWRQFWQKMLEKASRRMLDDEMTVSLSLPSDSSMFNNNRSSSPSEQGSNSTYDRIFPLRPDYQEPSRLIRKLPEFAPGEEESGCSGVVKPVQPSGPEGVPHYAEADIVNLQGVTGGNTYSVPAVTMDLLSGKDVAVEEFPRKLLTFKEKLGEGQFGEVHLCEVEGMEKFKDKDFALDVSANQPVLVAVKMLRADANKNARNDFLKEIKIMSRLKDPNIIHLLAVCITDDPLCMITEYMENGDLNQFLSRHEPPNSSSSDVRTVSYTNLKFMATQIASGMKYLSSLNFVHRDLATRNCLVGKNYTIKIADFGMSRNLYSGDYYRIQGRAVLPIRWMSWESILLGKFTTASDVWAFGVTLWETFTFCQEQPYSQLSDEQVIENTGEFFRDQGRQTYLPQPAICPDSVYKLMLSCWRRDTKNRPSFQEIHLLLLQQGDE

T3 sequence (Q15349 whole entry): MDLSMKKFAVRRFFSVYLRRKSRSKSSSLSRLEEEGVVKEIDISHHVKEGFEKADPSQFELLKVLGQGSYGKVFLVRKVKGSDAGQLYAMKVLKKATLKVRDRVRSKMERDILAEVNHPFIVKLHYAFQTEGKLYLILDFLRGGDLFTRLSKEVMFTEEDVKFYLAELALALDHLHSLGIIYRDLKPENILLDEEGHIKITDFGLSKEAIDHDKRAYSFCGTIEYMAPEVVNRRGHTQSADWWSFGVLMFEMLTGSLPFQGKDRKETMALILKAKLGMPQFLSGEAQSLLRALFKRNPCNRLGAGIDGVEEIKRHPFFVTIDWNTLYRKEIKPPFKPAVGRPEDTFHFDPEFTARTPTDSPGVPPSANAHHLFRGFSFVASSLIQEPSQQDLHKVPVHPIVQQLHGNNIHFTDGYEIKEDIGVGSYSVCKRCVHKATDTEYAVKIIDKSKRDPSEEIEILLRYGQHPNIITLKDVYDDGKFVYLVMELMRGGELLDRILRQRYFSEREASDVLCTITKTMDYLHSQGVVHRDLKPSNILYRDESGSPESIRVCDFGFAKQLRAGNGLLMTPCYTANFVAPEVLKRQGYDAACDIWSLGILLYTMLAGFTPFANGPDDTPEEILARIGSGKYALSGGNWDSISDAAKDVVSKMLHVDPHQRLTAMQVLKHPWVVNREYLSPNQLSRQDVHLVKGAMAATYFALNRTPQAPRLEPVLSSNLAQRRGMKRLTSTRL
T4 sequence (Q9Y5S2 whole entry): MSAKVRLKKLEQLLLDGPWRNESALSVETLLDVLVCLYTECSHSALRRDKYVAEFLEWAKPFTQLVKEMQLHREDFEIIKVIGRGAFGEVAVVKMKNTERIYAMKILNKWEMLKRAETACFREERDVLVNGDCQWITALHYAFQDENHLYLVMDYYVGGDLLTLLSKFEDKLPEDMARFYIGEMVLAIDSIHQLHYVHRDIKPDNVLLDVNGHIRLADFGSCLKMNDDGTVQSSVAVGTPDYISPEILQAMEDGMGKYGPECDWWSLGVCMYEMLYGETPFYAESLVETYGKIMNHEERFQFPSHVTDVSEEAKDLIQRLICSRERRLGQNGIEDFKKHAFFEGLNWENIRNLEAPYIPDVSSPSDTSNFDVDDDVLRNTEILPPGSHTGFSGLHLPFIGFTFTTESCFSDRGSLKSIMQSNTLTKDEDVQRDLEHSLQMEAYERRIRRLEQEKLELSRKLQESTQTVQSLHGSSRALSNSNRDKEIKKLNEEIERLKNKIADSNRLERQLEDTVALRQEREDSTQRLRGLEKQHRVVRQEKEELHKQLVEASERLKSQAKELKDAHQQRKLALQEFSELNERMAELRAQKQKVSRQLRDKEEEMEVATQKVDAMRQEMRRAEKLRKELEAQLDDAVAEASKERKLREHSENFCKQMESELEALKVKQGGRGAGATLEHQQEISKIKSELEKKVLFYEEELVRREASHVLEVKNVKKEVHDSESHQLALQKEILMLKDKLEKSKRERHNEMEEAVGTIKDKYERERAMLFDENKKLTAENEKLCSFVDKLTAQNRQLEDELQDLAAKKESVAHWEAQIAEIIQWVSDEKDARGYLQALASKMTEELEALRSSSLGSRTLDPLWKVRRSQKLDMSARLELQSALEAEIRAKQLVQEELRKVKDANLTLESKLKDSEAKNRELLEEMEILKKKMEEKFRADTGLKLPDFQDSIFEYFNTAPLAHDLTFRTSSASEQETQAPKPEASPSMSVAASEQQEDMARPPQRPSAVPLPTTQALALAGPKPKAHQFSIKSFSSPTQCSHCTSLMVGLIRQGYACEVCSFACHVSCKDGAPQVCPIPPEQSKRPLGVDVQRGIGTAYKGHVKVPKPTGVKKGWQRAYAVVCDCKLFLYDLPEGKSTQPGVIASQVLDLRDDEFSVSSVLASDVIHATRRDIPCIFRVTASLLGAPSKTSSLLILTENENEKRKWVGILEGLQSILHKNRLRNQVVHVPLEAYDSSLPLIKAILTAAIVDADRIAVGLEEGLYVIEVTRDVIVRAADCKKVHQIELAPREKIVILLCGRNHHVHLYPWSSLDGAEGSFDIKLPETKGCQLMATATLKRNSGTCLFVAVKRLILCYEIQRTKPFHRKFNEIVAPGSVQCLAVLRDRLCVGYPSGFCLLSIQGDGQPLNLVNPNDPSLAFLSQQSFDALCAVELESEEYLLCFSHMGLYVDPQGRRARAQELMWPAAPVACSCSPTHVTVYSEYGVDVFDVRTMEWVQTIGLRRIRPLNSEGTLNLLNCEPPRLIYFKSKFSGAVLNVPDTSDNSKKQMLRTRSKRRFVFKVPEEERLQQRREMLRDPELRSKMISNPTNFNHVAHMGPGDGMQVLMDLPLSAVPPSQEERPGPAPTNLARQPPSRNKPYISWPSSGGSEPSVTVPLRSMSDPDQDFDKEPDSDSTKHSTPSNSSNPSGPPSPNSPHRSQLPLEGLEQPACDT

**Q.** What does the source list for `COc1cc(OC)c(Cl)c(-c2ccc3c(NC(=O)c4ccc(N5CCNC(C)(C)C5)cc4)n[nH]c3n2)c1Cl` [3D185]?
**A.** inhibition at 0.01 µM (PKG1β(h); 10 nM): 12%; inhibition at 0.1 µM (PKG1β(h); 100 nM): 1%; inhibition at 1 µM (PKG1β(h); 1000 nM): 4%; inhibition at 0.01 µM (EphA8(h); 10 nM): 1%; inhibition at 0.1 µM (EphA8(h); 100 nM): 5%; inhibition at 1 µM (EphA8(h); 1000 nM): 29%; inhibition at 0.01 µM (Rsk3(h); 10 nM): -17%; inhibition at 0.1 µM (Rsk3(h); 100 nM): -19%; inhibition at 1 µM (Rsk3(h); 1000 nM): -15%; inhibition at 0.01 µM (MRCKβ(h); 10 nM): 18%; inhibition at 0.1 µM (MRCKβ(h); 100 nM): 8%; inhibition at 1 µM (MRCKβ(h); 1000 nM): 21%; inhibition at 0.01 µM (DDR2(h); 10 nM): 0%; inhibition at 0.1 µM (DDR2(h); 100 nM): 7%; inhibition at 1 µM (DDR2(h); 1000 nM): 54%
